# Source: ChEMBL document CHEMBL1201862, “PubChem BioAssay data set” (2004)
# Active and inactive are the calls of the source. No stated cut-off is given here; in the data, actives have a measured IC50 and inactives only a lower limit.
# Target: Envelope glycoprotein gp160 (Human immunodeficiency virus 1, UniProt Q6QLK5)
# Assay: inhibitors of HIV fusion peptide binding, primary screen, biochemical, uHTS, fluorescence dequenching (AID 1986)
# Envelope glycoprotein gp160, sequence (Q6QLK5 whole entry, the tested form may be a part): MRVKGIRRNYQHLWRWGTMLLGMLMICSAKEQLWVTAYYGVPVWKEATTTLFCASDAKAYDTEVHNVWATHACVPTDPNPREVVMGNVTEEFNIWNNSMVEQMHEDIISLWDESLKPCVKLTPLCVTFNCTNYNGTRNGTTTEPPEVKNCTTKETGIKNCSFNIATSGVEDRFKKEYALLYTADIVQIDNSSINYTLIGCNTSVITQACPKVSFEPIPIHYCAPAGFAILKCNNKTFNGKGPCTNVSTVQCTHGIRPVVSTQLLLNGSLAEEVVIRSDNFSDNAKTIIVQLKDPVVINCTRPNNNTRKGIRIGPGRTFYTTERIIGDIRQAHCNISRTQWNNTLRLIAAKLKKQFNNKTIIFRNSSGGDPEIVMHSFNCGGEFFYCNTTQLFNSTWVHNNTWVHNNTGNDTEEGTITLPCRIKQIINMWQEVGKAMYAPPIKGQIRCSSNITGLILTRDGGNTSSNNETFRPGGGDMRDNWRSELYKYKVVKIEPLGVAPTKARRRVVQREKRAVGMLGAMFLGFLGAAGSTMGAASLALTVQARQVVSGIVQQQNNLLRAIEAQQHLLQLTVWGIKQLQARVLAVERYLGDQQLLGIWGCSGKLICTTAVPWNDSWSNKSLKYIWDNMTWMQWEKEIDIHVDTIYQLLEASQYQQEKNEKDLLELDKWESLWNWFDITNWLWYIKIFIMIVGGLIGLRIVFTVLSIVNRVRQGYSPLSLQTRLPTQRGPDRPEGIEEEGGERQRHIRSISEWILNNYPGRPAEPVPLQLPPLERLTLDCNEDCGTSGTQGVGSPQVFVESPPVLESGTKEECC
compound,measurement,value
O=C(O)CSc1cc(C(=O)c2ccccc2O)cn2c(=O)c3c4c(sc3nc12)CCCC4,IC50,20.7 µM (active)
